Patent US20130072404A1, “APPARATUS AND PROCESSES FOR GENERATING VARIABLE CONCENTRATION OF SOLUTES IN MICRODROPLETS” (UNIVERSITE DE STRASBOURG, priority 2009, published 2013)
pIC50: −log10 of the molar value. Where two headings read alike, the source gives them in different places.

Experiments:
[1] = biological target: T1, β-galactosidase (Escherichia coli, UniProt P00722); set-up: purchased Sigma-Aldrich Co; details: Angenendt et al., 2004; read-out: IC50 literature value; cited from earlier work
Target sequence in this assay (P00722 2-1024 limits assumed): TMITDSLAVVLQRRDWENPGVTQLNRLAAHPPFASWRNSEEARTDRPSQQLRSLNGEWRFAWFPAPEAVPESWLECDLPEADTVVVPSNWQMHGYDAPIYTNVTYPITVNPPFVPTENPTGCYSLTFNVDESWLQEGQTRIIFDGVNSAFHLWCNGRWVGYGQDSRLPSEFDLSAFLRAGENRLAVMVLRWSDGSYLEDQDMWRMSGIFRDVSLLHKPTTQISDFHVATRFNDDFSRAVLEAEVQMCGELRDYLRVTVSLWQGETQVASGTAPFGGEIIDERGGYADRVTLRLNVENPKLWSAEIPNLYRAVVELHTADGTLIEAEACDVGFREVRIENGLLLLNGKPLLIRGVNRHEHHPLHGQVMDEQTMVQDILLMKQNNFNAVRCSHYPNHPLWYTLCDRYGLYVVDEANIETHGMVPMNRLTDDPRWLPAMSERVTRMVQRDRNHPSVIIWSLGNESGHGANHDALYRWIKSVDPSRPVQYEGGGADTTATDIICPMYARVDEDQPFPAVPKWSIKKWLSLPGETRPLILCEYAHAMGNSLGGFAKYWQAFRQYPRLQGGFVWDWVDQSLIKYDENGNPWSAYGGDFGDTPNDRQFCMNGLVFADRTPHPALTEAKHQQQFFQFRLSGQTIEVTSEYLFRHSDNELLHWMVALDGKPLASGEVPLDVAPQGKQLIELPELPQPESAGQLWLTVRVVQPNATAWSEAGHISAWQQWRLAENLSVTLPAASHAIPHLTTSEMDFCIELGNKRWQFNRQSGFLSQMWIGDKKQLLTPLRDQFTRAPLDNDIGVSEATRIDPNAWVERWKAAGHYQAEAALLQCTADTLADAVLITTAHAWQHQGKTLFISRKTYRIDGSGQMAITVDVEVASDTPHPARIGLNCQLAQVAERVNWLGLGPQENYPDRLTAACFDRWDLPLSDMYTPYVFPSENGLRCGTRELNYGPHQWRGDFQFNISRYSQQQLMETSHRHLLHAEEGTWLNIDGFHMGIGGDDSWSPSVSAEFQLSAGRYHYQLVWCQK

[2] = biological target: T1, β-galactosidase; test: Standard microplate assay (Example 1 comparison values); assay type: biochemical; set-up: purchased Sigma-Aldrich Co; details: read-out: IC50 of PETG measured in a standard microplate assay
Target sequence in this assay (P00722 2-1024 limits assumed): as above

[3] = biological target: T1, β-galactosidase; test: High-resolution dose-response screening of β-galactosidase inhibition in droplets (Example 2), FDG substrate; assay type: biochemical, E. coli; set-up: purchased Grade VIII; details: for pIC50: 4-parameter Hill fit
Procedure: PBS was pumped through the autosampler at a rate of 200 μl/hour. On-chip, this flow was combined with solutions of enzyme and substrate, both flowing at 100 μl/hour. The enzyme solution was 20 U/ml of E. coli Grade VIII β-galactosidase in PBS containing 4 g/l BSA. The substrate solution was 240 μM FDG and 400 nM sodium fluorescein in PBS. The combined aqueous flow was segmented into droplets by the oil/surfactant solution flowing at a rate of 400 μl/hour. The optical setup was positioned just before the delay line and individual droplets were discriminated by green fluorescence. The measurement at this point provided a “pseudo blank” (no enzyme activity, equivalent to 100% inhibition) for the inhibition calculations later on: droplets with zero activity were not observed to change fluorescence between production and any measurement point in the delay line (FIG. 17).
The optical setup was repositioned to the 30-second measurement point and the droplets were analyzed continuously. Meanwhile, the autosampler was used to load 1 μl from each well of a 96-well plate into the PBS stream running through the dispersion capillary. Each well contained 20 μl of 100 μM DY-682 in PBS, plus one of four different concentrations of the inhibitor 2-phenylethyl β-D-thiogalactoside (PETG; Invitrogen Corp., California, USA): 600 μM (“high”), 120 μM (“medium”), 24 μM (“low”), or zero. As each Gaussian-like pulse of DY-682 and PETG, mixed with the reaction components and segmented into droplets, arrived at the optical detector, a dose-response profile was recorded.
Offline, a Python script was used to group the droplets in the front edge of each Gaussian-like pulse by injection (˜10,000 droplets); these droplets are referred to as the injection's “dose-response droplets”. 1 second's worth of droplets directly preceding each Gaussian-like pulse were also stored (˜800 droplets). The mean green fluorescence of these droplets provided the “control” value (0% inhibition) for the injection and this value was used with the pseudo blank value (corresponding to 100% inhibition) to calculate the percentage inhibition in the subsequent dose-response droplets. […] The corrected green signal was then used to calculate the proportion of inhibition (I) in each droplet using the following equation: […]
where M is corrected measured fluorescence, B is the pseudo blank value, and C is the control value. In parallel, the NIR fluorescence signal for each droplet was used to calculate the concentration of co-injected compound. […]
For each of the 16 “medium” injections the quality of the assay was determined by calculating the Z-factor (Zhang et al., 1999).
Target sequence in this assay (P00722 2-1024): as the sequence (P00722 2-1024 limits assumed) above

OC[C@H]1O[C@@H](SCCc2ccccc2)[C@H](O)[C@@H](O)[C@H]1O [PETG, phenylethyl β-D-thiogalactopyranoside]
pIC50 [1]: 5.51
pIC50 [2]: 5.84
inhibition ([3]; droplets containing 50 μM PETG): 97.5%
pIC50 ([3]; mean IC50, high (600 μM) injected PETG): 5.70
pIC50 ([3]; mean IC50, low (24 μM) injected PETG): 5.70
pIC50 ([3]; mean IC50, medium (120 μM) injected PETG, n=16): 5.69
